According to US20060063913A1, “SSX-2 peptide analogs” (priority 2004, published 2006):
Where a SMILES comes first, the peptide text is derived from it. Where no end group is shown, it is not given here. [ ]: non-standard residue; d: D form. Orn = NCCC[C@H](N)C(=O)O; Nva = CCC[C@H](N)C(=O)O

How the values were obtained:
HLA-A*0201 = HLA-A*0201 (Homo sapiens, UniProt P04439, D140Y/D185E/D98H/E176V/E277Q/G131W/G231S/I119V/I121R/I166T/I218V/L300P/L318F/N151K/N90K/P208A/P217A/Q86G/Q94H/R138H/R169H/T345S); experiment: ED50 (M)
[1] = tested on: T cell lines specific for the native epitope (PRAME425-433); experiment: Cross-reactivity of PRAME 425-433 analogs: IFN-gamma secretion from T cell lines specific for the native epitope; format: cell-based, HHD transgenic mice; conditions: analog peptide at approximately 0.3 μM
Protocol: The analogs listed in FIGS. 26-28 were tested for various properties such as improved affinity and stability of binding, cross-reactivity with the native epitope, and immunogenicity as follows in Examples 40-48. […] The observed affinities of the analogs are reported as % binding (compared to the positive control) and ED50s. Stability of binding as half time of dissociation. Cross reactivity with the native epitope was assessed by using the analog peptides to stimulate IFG-gamma secretion from a T cell lines specific for the native epitope, essentially as described in Example 6. The data shown in FIGS. 26-28 were generated by stimulating with analog peptide at approximately 0.3 μM. […] In some cases the reported values are the average of two determinations.

[2] = tested on: T cells specific for the wild-type NY-ESO-1157-165 epitope; experiment: Cross-reactivity and functional avidity of NY-ESO-1 157-165 analogs (IFN-gamma, T cells specific for the wild-type epitope); format: cell-based, HHD transgenic mice; conditions: IFN-gamma production ex vivo
HLA-A*0201 on T2 cells = biological target: T1, HLA-A*0201 on T2 cells (human); experiment: T2 cell binding assay (flow cytometry)
T1 construct: Class I MHC stabilised on T2 cells by added peptide, detected with a fluorescent anti-A2 antibody; also called HLA-A2; MHC class I (A2 allele)

Molecule	EC50 (HLA-A*0201) [nM]	also measured
CCC[C@H](NC(=O)[C@@H](N)CO)C(=O)N[C@@H](CC(C)C)C(=O)N[C@@H](CCC(N)=O)C(=O)N[C@@H](Cc1c[nH]cn1)C(=O)N[C@@H](CC(C)C)C(=O)N[C@H](C(=O)NCC(=O)N[C@@H](CC(C)C)C(=O)O)[C@@H](C)CC [6 | Prame 425-433 (L426(Nva)), S(Nva)LQHLIGL] (H-S[Nva]LQHLIGL-OH; N-terminus and C-terminus assumed)	1910	–
CC[C@H](C)[C@H](NC(=O)[C@H](CC(C)C)NC(=O)[C@H](Cc1c[nH]cn1)NC(=O)[C@H](CCC(N)=O)NC(=O)[C@H](CC(C)C)NC(=O)[C@H](CC(C)C)NC(=O)[C@@H](N)CCCN)C(=O)NCC(=O)N[C@@H](CC(C)C)C(=O)O [12 | Prame 425-433 (S425(Orn))] (H-[Orn]LLQHLIGL-OH; N-terminus and C-terminus assumed)	2250	–
CCC[C@H](NC(=O)CNC(=O)[C@@H](NC(=O)[C@H](CC(C)C)NC(=O)[C@H](Cc1c[nH]cn1)NC(=O)[C@H](CCC(N)=O)NC(=O)[C@H](CC(C)C)NC(=O)[C@H](CC(C)C)NC(=O)[C@@H](N)CO)[C@@H](C)CC)C(=O)O [18 | Prame 425-433 (L433(Nva))] (H-SLLQHLIG[Nva]-OH; N-terminus and C-terminus assumed)	1660	–
FLLQHLIGL [9 | Prame 425-433 (S425F)]	434	–
Lys P1 analog: PRAME 425-433 analog with Lys for the Ser at the P1 position (KLLQHLIGL; UniProt P78395 425-433, looked up, variant S425K)	–	IFN-γ elicited, as percent of the native peptide [1]: 40%
NY-ESO-1157-166: 10-mer of the wild-type NY-ESO-1 sequence, residues 157-166 (SLLMWITQCF; UniProt P78358 157-166, looked up, fragment)	–	Activity in the cross-reactivity/functional avidity assay relative to wild-type NY-ESO-1 157-165, in words [2]: showed no immunological activity
SMLQHLIGL [3 | Prame 425-433 (L426M)]	988	–
TLLQHLIGL [11 | Prame 425-433 (S425T)]	1450	–
YLLQHLIGL [10 | Prame 425-433 (S425Y)]	550	–
KVSEKIFYX (C-terminal amide) [SSX-2 41-49-NH2 (A42V)]	–	binding result (HLA-A*0201 on T2 cells): no binding
